Results on twelve compounds are retold here after patent US20250325573A1, “Anti-Cancer Saccharide-Linked Dithiocarbamate Compounds” (Anglia Ruskin University Higher Education Corporation, priority 2022, published 2025).

What all share (type): cell-based
One series relates to A549. As to the kind of experiment: MTT cytotoxicity assay, lung cancer cell line A549. (Tetrazolium dyes change colour on reduction, which living cells bring about.)
Another series deals with H630 WT. As to the kind of experiment: MTT cytotoxicity assay, colorectal cancer cell line H630 WT. Conditions: 72 h. The method, then:
(§1) The H630 WT (passage 12-21) and H630 R10 (passage 4-13) cells were seeded in 96-well plates at seeding density of 1×10^4 cells/well in Dulbecco's modified Eagle's medium (DMEM) with 10% FBS, 1 mM sodium pyruvate, 2 mM L-glutamine and 0.1 mM non-essential amino acids. Cells were incubated at 37° C., 5% CO2 and 95% relative humidity. Cells were constantly exposed to different concentrations of the tested compound in combination with 10 μM of CuCl2 for 72 h and then subjected to a standard 3-(4,5-Dimethylthiazol-2-yl)-2,5-Diphenyltetrazolium bromide (MTT) assay. The experiments were carried out in triplicates and the IC50 values were calculated (see FIG. 2).

Series [1] concerns lung cancer cell line A549. The series can be described thus: Microscopy images of lung cancer cells A549. The note with it: for cytotoxicity against lung cancer cells (microscopy): with and without copper(II) 10 μM, boosted by adding copper.
Series [2] has as its system breast cancer cell line MDA-MB-231. The series can be described thus: Microscopy images of breast cancer cells MDA-MB-231. Conditions: for concentration showing apoptotic signs (shrinkage, cell detachment, membrane blebbing): 24 hours of incubation.
Another series concerns MDA-MB-231. As to the kind of experiment: MTT cytotoxicity assay, breast cancer cell line MDA-MB-231.
The test system of a further series is H630 R10. As to the kind of experiment: MTT cytotoxicity assay, colorectal cancer cell line H630 R10 (resistant to 5FU 10 μM). The note with it: 72 h. The method, then:
as §1
5FU was purchased from Sigma Aldrich, Dorset, UK.

The subject of series [3] is colorectal cancer cell line H630 WT. The series can be described thus: Microscopy images of colorectal cancer cells H630 WT. Conditions: 500 μM, copper(II) 10 μM, 72 hours.
Where [4] appears, read: Homo sapiens, A549, 72 h, with Cu (10 μM CuCl2).
[5] abbreviates: Homo sapiens, NCI-H630, with Cu (10 μM CuCl2).
The mark [6] stands for this setting: Homo sapiens, MDA-MB-231, 72 h, with Cu (10 μM CuCl2).
Where [7] appears, read: Homo sapiens, NCI-H630, comparative agent as listed, no added metal named.
Where [8] appears, read: Homo sapiens, MDA-MB-231, 72 h, without copper(II).
The mark [9] stands for this setting: comparative agent as listed, no added metal named.

As a reminder, the IC50 is the midpoint of a concentration-inhibition curve.

In the series with A549 (setting [4]), `CCN(CC)C(=S)SC1O[C@H](COC(C)=O)[C@@H](OC(C)=O)[C@H](OC(C)=O)[C@H]1OC(C)=O` (stereo partly drawn) [Tetra-DDC, β-D-glucopyranose, 1-thio-, 2,3,4,6-tetraacetate 1-(N,N-diethylcarbamodithioate)] registered a half-maximal inhibitory concentration (IC50) of 53.4 ± 11.5 µM.

Take `CCN(CC)C(=S)SC1OC(CO)C(O)C(O)C1NC(C)=O` (stereo not shown) [AG-DDC, 2-N-acetyl-glycosylamine diethyldithiocarbamate]: in the series on H630 WT (setting [5]), the half-inhibitory concentration (IC50) is 5.8 ± 1.2 µM.

With `O=CC[C@@H](O)[C@H](O)[C@H](O)CO` [2-deoxy-glucose, reference compound], in series [1] (1 mM, with or without copper(II), 72 h), the “cytotoxic effect (microscopy)” value is recorded as “no cytotoxic effect”. Moreover, the “concentration showing slight toxicity effect (cells started to detach)” value in series [1] (without copper(II), 24 hours) stood at 8 mM; in series [2] (without copper(II), 24 hours) it was 8 mM. For the same compound, the features of apoptosis result in series [2] (1000 μM, with copper(II) 10 μM, 24 hours) is “no features of apoptosis”.

In the series on MDA-MB-231 (with Cu (10 μM CuCl2), 72 h), `CCN(CC)C(=S)SC1O[C@H](CO)[C@@H](O)[C@H](O)[C@H]1O` (stereo in doubt) [Ga-DDC, Galactosyl diethyldithiocarbamate] yielded an IC50 of 17.7 ± 8.2 µM.

For `CCN(CC)C(=S)SC1O[C@H](CO)[C@@H](O)[C@H](O)[C@@H]1O` (stereo partly shown) [Ma-DDC, Mannosyl diethyldithiocarbamate], the half-maximal inhibitory concentration (IC50) with MDA-MB-231 (setting [6]) is 78.6 ± 12.6 µM.

In the series on MDA-MB-231 (setting [6]), `CCN(CC)C(=S)SC1O[C@H](CO)[C@@H](O[C@@H]2O[C@H](CO)[C@H](O)[C@H](O)[C@H]2O)[C@H](O)[C@H]1O` (stereo partly shown) [La-DDC, Lactosyl diethyldithiocarbamate] yielded an IC50 of 89.7 ± 12.6 µM.

`O=c1[nH]cc(F)c(=O)[nH]1` [Example 5FU, fluorouracil, reference compound]: the values for the half-inhibitory concentration (IC50) in the series with H630 R10 (setting [7]) and in the series with H630 WT (setting [7]) were 462 ± 8 µM and 4.6 ± 1.6 µM, respectively.

In the case of `CCN(CC)C(=S)SC1CC(O)C(O)C(CO)O1` (stereo not shown) [DG-DDC, 2-Deoxy-glycosyl diethyldithiocarbamate], the half-inhibitory concentration (IC50) in the series with MDA-MB-231 (setting [6]) came out at 3.62 ± 0.22 µM; with MDA-MB-231 (setting [8]), 2060 ± 54.7 µM; in the series on H630 R10 (setting [5]) it was 5.3 ± 0.9 µM; with H630 WT (setting [5]) it was 5.2 ± 1.7 µM; in the series on A549 (setting [4]) it was 2.79 ± 0.25 µM; with A549 (Homo sapiens, A549, 72 h, with Zn (ZnCl2 10 μM)), 49.6 ± 18.6 µM. For the same compound, in series [3], the “observation in cells (microscopy)” value is given as “Cu(II) bis(N,N-diethyldithiocarbamate) complex crystals”. The “cytotoxicity against lung cancer cells (microscopy)” value in series [1] (72 h) is “cytotoxic”. Besides, the “toxic effect compared to glycosyl diethyldithiocarbamate at similar concentrations” value was “more toxic effect” in series [1] (without copper(II), 24 hours) and “more toxic effect” in series [2] (without copper(II), 24 hours). In series [2] (with copper(II) 10 μM), the “concentration showing apoptotic signs (shrinkage, cell detachment, membrane blebbing)” value stood at 25 µM.

As to `CCN(CC)C(=S)SSC(=S)N(CC)CC` [DS, disulfiram, reference compound], the half-inhibitory concentration (IC50) with MDA-MB-231 (setting [8]) is over 8000 µM.

Regarding `CCN(CC)C(=S)[S-].CCN(CC)C(=S)[S-].[Cu+2]` [(DDC)2Cu, Cu(II) bis(N,N-diethyldithiocarbamate) complex, reference compound], the IC50 with H630 R10 (setting [9]) was 4.9 ± 1.6 µM; with H630 WT (setting [9]) it was 5.9 ± 1.1 µM; in the series on A549 (comparative agent as listed, no added metal named, 72 h) it was 3.6 ± 0.7 µM.

Consider `CCN(CC)C(=S)SC1OC[C@@H](O)[C@H](O)[C@H]1O` (stereo partly shown) [XY-DDC, Xylosyl diethyldithiocarbamate], for which the IC50 in the series with H630 WT (setting [5]) was 6.9 ± 2.6 µM.

Take `CCN(CC)C(=S)SC1O[C@H](CO)[C@@H](O)[C@H](O)[C@H]1O` (stereo partly shown) [G-DDC, Glycosyl diethyldithiocarbamate]: the half-inhibitory concentration (IC50) with MDA-MB-231 (setting [8]) was 2180 ± 356 µM; with MDA-MB-231 (with Cu (10 μM CuCl2), 72 h), 348 ± 44.7 µM; with H630 WT (setting [5]), 127 ± 13.2 µM; in the series on A549 (setting [4]) it was 95.9 ± 21.3 µM. For the same compound, the “cytotoxicity against lung cancer cells (microscopy)” value in series [1] (72 h) is reported as “cytotoxic”. Further, the “concentration showing signs of apoptosis (shrinkage, cell detachment)” value was 8 mM in series [1] (without copper(II), 24 hours) and 8 mM in series [2] (without copper(II), 24 hours). For the same compound, the “concentration showing slight toxicity effect (cells started to detach)” value in series [1] (without copper(II), 24 hours) was 4 mM; in series [2] (without copper(II), 24 hours), 4 mM. The “concentration showing apoptotic signs (shrinkage, cell detachment, membrane blebbing)” value in series [2] (with copper(II) 10 μM) came out at 250 µM.
